Reference: EP2533787B1, “USE OF ISORHAMNETIN TRIGLYCOSIDES” (Dr. Willmar Schwabe GmbH & Co. KG, priority 2010, dated 2011)
Marks after values point to notes of the source that are not given here.

What was measured:
Mäuse = experiment: Light/dark box test ("Hell-Dunkel-Box"), frequency of compartment changes; format: in vivo; conditions: for Anzahl der Feldwechsel im Vergleich zur Vehikel-Kontrolle / Wechselhäufigkeit in der "Hell-Dunkel-Box": single dose; for Anzahl der Feldwechsel im Vergleich zur Vehikel-Kontrolle: tested after 60 min, observed 3 min; for Erkundungsverhalten ("exploratory behavior"): oral application in mice; for Erkundungsverhalten ("exploratory behavior") / Wechselhäufigkeit in der "Hell-Dunkel-Box": result in words; for Wechselhäufigkeit in der "Hell-Dunkel-Box": oral
Text: Die aktivitätssteigernde Wirkung der Isorhamnetintriglycoside 2, 3 und 4 wurde an Versuchstieren im sogenannten "Hell-Dunkel-Box" System getestet.
Das Prinzip des verwendeten Testsystems beruht darauf, dass Mäuse einem Verhaltensparadigma ausgesetzt werden, das zwei gegensätzliche Verhaltensmuster aktiviert. Die Box besteht aus zwei Kompartimenten von denen ein kleinerer dunkler Teil von einem hellen und größeren Teil durch eine Wand getrennt wird. In der Mitte der Wand befindet sich eine kleine Öffnung, die es dem Versuchstier ermöglicht zwischen den beiden Kompartimenten zu wechseln. Der Versuch beginnt mit dem Einsetzen der Maus in das helle Feld. Das angeborene Dunkelpräferenzverhalten führt dazu, dass die Tiere nach einer kurzen Latenzzeit in das dunkle -sichere Kompartiment wechseln. Nach kurzer Zeit führt aber das ebenso stark ausgeprägte Neugierverhalten (Erkundungsverhalten) dazu, dass die Mäuse wieder in das helle Kompartiment wechseln. Somit stehen zwei angeborene Verhaltensweisen, nämlich die Dunkelpräferenz (Vermutlich als Schutz vor Beutegreifern) und das Erkundungsverhalten (wichtig für Nahrungssuche, Partnersuche) im Konflikt, die für eine Dauer von 3 Minuten aufgezeichnet werden. Arzneimittel, die beruhigende pharmakologische Effekte haben, führen zu einer Verminderung der Wechselhäufigkeit zwischen den Kompartimenten, während Arzneimittel mit stimulierenden Aktivitäten die Wechselhäufigkeit steigern. Die Wechselhäufigkeit ist somit ein Index für aktivitätsgesteuertes Erkundungsverhalten als Zeichen einer Habituation (M. Bourin, and M. Hascoet, "The mouse light/dark box test", Eur. J. Pharmacol. 463 (2003) 55 - 65). Die Versuchsanordnung betrachtet somit Verhaltensparameter, die geeignet sind das Maß an Aktivität zu messen und zu bewerten.
Um die aktivitätssteigernden Effekte der Isorhamnetintriglycoside 2, 3 und 4 zu testen wurden Mäuse einmalig mit verschieden hohen Dosierungen der Flavone behandelt. Zum Vergleich wurden einige Tiere entweder mit dem sedierenden Benzodiazepin Lorazepam oder mit dem aktivitätssteigernden Präparat Methamphetamin oder mit einer wirkungslosen Kontrolllösung behandelt. Nach 60 Minuten wurden die Tiere in das helle Kompartiment der "Hell-Dunkel-Box" gesetzt und über einen Zeitraum von 3 Minuten beobachtet. Als Maß der Aktivität wurde die Häufigkeit der Feldwechsel gemessen. […] Tabelle 2: Wirkung der Isorhamnetintriglycoside 2 und 3 im Vergleich zum Anxiolytikum Lorazepam. Gemessen wird die Anzahl der Feldwechsel im Vergleich zur Vehikel-Kontrolle.

[1] = tested on: Hippocampus Schnittpräparaten; experiment: Long-term potentiation (LTP) in hippocampal slice preparations, POP spikes; format: cell-based, Wistar-Ratten; conditions: result in words; for Langzeitpotenzierung: rat brain slice preparations, compared with buffer solution; for Reizantwort nach LTP-Stimulation: size of POP spikes after repeated LTP induction, compared with solvent
Text: Um den Einfluss der Isorhamnetintriglycoside 2 und 4 auf mentale Funktionen zu testen wurde die Induktion der sogenannten Langzeitpotenzierung (LTP) verwendet. In Hirnschnitt-Präparaten von Wirbeltieren dient LTP als zelluläres Modell für Lernvorgänge, vor allem im Arbeitsgedächtnis (T. V. P. Bliss, and G. L. Collingridge, "A synaptic model of memory: Long-term potentiation in the hippocampus", Nature 361 (1993) 31 - 39). Durch wiederholte Reizung von Neuronen wird eine langandauernde Verstärkung der synaptischen Übertragung induziert, die durch eine Stabilisierung oder Aktivierung sogenannter ruhender Synapsen ("silent synapses) zu einer Neubildung von Verschaltungsmustern zustande kommt (Lernen). Die am besten untersuchte Region des Gehirns für LTP Messungen ist der Hippocampus, der für die Verarbeitung von Lernvorgängen eine zentrale Rolle spielt, allerdings findet LTP auch in anderen Hirnregionen statt (G. A. Kerchner, and R.A. Nicoll, "Silent synapses and the emergence of a postsynaptic mechanism for LTP", Nat. Rev. Neurosci. 9 (2008) 813 - 825). Bei Ratten und anderen Nagern ist die Langzeitpotenzierung insbesondere mit der Ausbildung des räumlichen Lernens assoziiert (J. R. Whitlock, A. J. Heynen, M. G. Shuler, and M. F. Bear, "Learning induced long-term potentiation in the hippocampus", Science 313 (2006) 1093 - 1097).
Die Experimente wurden an Hippocampus Schnittpräparaten von 8-12 Wochen alten weiblichen Wistar-Ratten durchgeführt. Die Hirnschnitte werden bei 35°C in einer Messkammer gehalten und mit einer Nährlösung perfundiert. Glasmikroelektroden werden im dendritischen Bereich des Stratum pyramidale (CA1) platziert um "Population Spikes" (POP-Spikes) zu registrieren. Die Schaffer-Kollateralen werden mit bipolaren Reizelektroden aus Platin-Draht stimuliert und die resultierenden Aktionspotentiale (POP Spikes) gemessen. Der eigentliche Versuch beginnt nach einer Äquilibrierungszeit von 60 Minuten in welcher die Hirnschnitte nicht manipuliert werden. Anschließend werden die Elektroden platziert und begonnen die Schaffer Kollateralen mit steigender Stromstärke zu stimulieren. Nach Erreichen der maximalen Reizantwort wird die Stromstärke so reduziert, dass nur noch 50% der maximal möglichen Reizstärke erreicht werden. Dadurch kann im späteren Versuch überprüft werden ob eine Verstärkung der Reizantwort möglich ist. Anschließend wird alle 10 Sekunden mit der submaximalen Reizstärke stimuliert und die POP Spikes registriert. Die erste LTP-Induktion beginnt mit einer repetitiven Reizung (100 Hz für 1 Sekunde). Der 1. Stimulation folgt die erneute Einzelstimulation (alle 10 Sekunden ein submaximaler Reiz) für zehn Minuten. Diese erste Stimulation dient der Überprüfung, ob der Hirnschnitt eine Reizantwort auf die LTP-Induktion zeigt. […]

O=C1Nc2ccc(Cl)cc2C(c2ccccc2Cl)=NC1O (centres unmarked) [Lorazepam]
Anzahl der Feldwechsel im Vergleich zur Vehikel-Kontrolle (Mäuse; 0,3 mg/kg po): -46 % der Kontrolle

CNC(C)Cc1ccccc1 (centres unmarked) [Methamphetamin]
Wechsel Anzahl (Mäuse; 0,3 mg/kg peroral): 7,5 ± 2,1
Wechsel Prozent der Kontrolle (Mäuse; 0,3 mg/kg peroral): +7%
Wechsel Anzahl (Mäuse; 1,0 mg/kg peroral): 10,6 ± 1,6
Wechsel Prozent der Kontrolle (Mäuse; 1,0 mg/kg peroral): +51%
Wechsel Anzahl (Mäuse; 3,0 mg/kg peroral): 10,9 ± 3,3
Wechsel Prozent der Kontrolle (Mäuse; 3,0 mg/kg peroral): +56%
Wechsel Anzahl (Mäuse; 10,0 mg/kg peroral): 0,6 ± 1,2
Wechsel Prozent der Kontrolle (Mäuse; 10,0 mg/kg peroral): -91%

COc1cc(-c2oc3cc(O)cc(O)c3c(=O)c2O[C@@H]2O[C@H](CO[C@@H]3O[C@@H](C)[C@H](O)[C@@H](O)[C@H]3O)[C@H](O)[C@H](O)[C@H]2O[C@@H]2OC[C@@H](O)[C@H](O)[C@H]2O)ccc1O [Verbindung 2, 3-[(O-6-Deoxy-α-L-mannopyranosyl-(1→6)-O-[ß-D-xylopyranosyl-(1→2)]-ß-D-galactopyranosyl)oxy]-5,7-dihydroxy-2-(4-hydroxy-3-methoxy-phenyl)-4H-1-benzopyran-4-on]
Anzahl der Feldwechsel im Vergleich zur Vehikel-Kontrolle (Mäuse; 10 mg/kg po): +100 # % der Kontrolle
Anzahl der Feldwechsel im Vergleich zur Vehikel-Kontrolle (Mäuse; 30 mg/kg po): +38 % der Kontrolle
Erkundungsverhalten ("exploratory behavior") (Mäuse): deutlichen, dosisabhängigen und statistisch signifikantem Ansteigen des Erkundungsverhaltens
Wechselhäufigkeit in der "Hell-Dunkel-Box" (Mäuse; 30 mg/kg): geht dieser Effekt verloren
Wechselhäufigkeit in der "Hell-Dunkel-Box" (Mäuse; 3 und 10 mg/kg): deutlichen, signifikanten Steigerung der Wechselhäufigkeit
Langzeitpotenzierung [1]: deutlich gesteigert
Reizantwort nach LTP-Stimulation [1]: deutliche Steigerung der Reizantwort

COc1cc(-c2oc3cc(O)cc(O)c3c(=O)c2O[C@@H]2O[C@H](CO[C@@H]3O[C@@H](C)[C@H](O[C@@H]4O[C@@H](C)[C@H](O)[C@@H](O)[C@H]4O)[C@@H](O)[C@H]3O)[C@@H](O)[C@H](O)[C@H]2O)ccc1O [Verbindung 3, 3-[(O-6-Deoxy-α-L-mannopyranosyl-(1→4)-O-6-deoxy-α-L-mannopyranosyl-(1→6)-ß-D-glucopyranosyl)oxy]-5,7-dihydroxy-2-(4-hydroxy-3-methoxyphenyl)-4H-1-benzopyran-4-on]
Anzahl der Feldwechsel im Vergleich zur Vehikel-Kontrolle (Mäuse; 3 mg/kg po): +15 % der Kontrolle
Erkundungsverhalten ("exploratory behavior") (Mäuse): deutlichen, dosisabhängigen und statistisch signifikantem Ansteigen des Erkundungsverhaltens

COc1cc(-c2oc3cc(O)cc(O)c3c(=O)c2O[C@@H]2O[C@H](CO[C@@H]3O[C@@H](C)[C@H](O)[C@@H](O)[C@H]3O)[C@@H](O)[C@H](O)[C@H]2O[C@@H]2OC[C@@H](O)[C@H](O)[C@H]2O)ccc1O [Verbindung 4, 3-[(O-6-Deoxy-α-L-mannopyranosyl-(1→6)-O-[ß-D-xylopyranosyl-(1→2)]-ß-D-glucopyranosyl)oxy]-5,7-dihydroxy-2-(4-hydroxy-3-methoxyphenyl)-4H-1-benzopyran-4-on]
Langzeitpotenzierung [1]: deutlich gesteigert
Reizantwort nach LTP-Stimulation [1]: deutliche Steigerung der Reizantwort
